# In patent US20240327335A1, “AMIDE COMPOUND HAVING IODOARYL OR IODOHETEROARYL, PREPARATION METHOD THEREFOR AND USE THEREOF” (CARDIOLINK SCIENCE (SHENZHEN) MEDICAL TECHNOLOGY …, priority 2022, published 2024):
row,melting point [°C],SMILES
1,165 to 166,COC(CNC(=O)c1cc(I)ccc1I)OC [Compound I-7]
2,180 to 182,"COC(CNC(=O)c1cc(I)cc(I)c1I)OC [Compound I-1, N-(2,2-dimethoxyethyl)-2,3,5-triiodobenzamide]"
3,170 to 171,COC(CNC(=O)COc1c(I)cc(I)cc1I)OC [Compound I-10]

# The next lines start with the compound.
row,SMILES,melting point [°C]
1,COC(CNC(=O)Cc1cc(I)cc(I)c1I)OC [Compound I-11],172 to 173
2,O=CCNC(=O)c1cc(I)cc(I)c1I [Compound I-8],90 to 92
3,COC(CNC(=O)c1ccc(I)cc1)OC [Compound I-6],156 to 158
4,COC(CNC(=O)c1ccc(I)cn1)OC [Compound I-9],178 to 180
